Laboratory results reported in patent US10561704B2, “Compositions and methods for treating neuropsychiatric disorders using an endothelin-B receptor agonist” (MIDWESTERN UNIVERSITY, priority 2013, dated 2020).
*1 amine or outer side, *2 acyl side, *3 side chain or, on linkers, in order; H or OH if unused. Where no end group is shown, it is not given here. Suc = O=C(CCC(=O)[*:2])[*:1]

Legend:
[1] = tested on: postnatal rat brain; experiment: Immunoblotting of VEGF, NGF and ETB receptors in the postnatal rat brain after IRL-1620; assay type: in vivo, Sprague-Dawley rats
Excerpt: (§1) After 21 days of gestation, 70 male and 65 female pups were born to 10 pregnant female rats. 30 male pups were randomly selected for Study I, and divided into 4 groups as follows: Group 1=male pups euthanized on postnatal day 1 (N=10); Group 2=male pups euthanized on postnatal day 7 (N=10); Group 3=male pups euthanized on postnatal day 14 (N=5); Group 4=male pups euthanized on postnatal day 28 (N=5). An additional 20 male pups were randomly selected for Study II, and divided into 2 groups: Control (N=10) and IRL-1620-treated (N=10). Pups in Study II received 3 doses of either isotonic saline (1 ml/kg) or ETB receptor agonist IRL-1620 (5 μg/kg; American Peptide Co, Inc., Sunnyvale, Calif.) on postnatal day 21. The doses were given intravenously at 2 hour intervals. All pups were weighed and evaluated for developmental and behavioral characteristics at postnatal day 1, 7, 14 and 28. Developmental and behavioral characteristics included active vs. sluggish behavior, healthy vs. shedding fur, licking, grooming, aggressive behavior, defecation, urination and wet dog shakes.
Protein levels of VEGF, NGF and ETB receptors in the postnatal rat brain of animals in Study II were estimated using immunoblotting technique. Animals were decapitated and the brains were removed on postnatal day 28, which is 7 days post administration of either saline or ETB receptor agonist, IRL-1620. The tissue was homogenized in 10× (w/v) RIPA lysis buffer, and protein concentration was determined according to the Lowry method, using bovine serum albumin as standard (Lowry et al., 1951). Protein (60 μg) was denatured in Laemmli sample buffer and resolved in 10% SDS-PAGE, and then transferred onto nitrocellulose membrane. […] Protein expression was analyzed using Image J (NIH) software.

[2] = tested on: postnatal rat brain; experiment: Immunofluorescent labeling of ETB receptors, VEGF and NGF in the postnatal rat brain after IRL-1620; assay type: in vivo, Sprague-Dawley rats; conditions: IRL-1620 on postnatal day 21, brain at day 28, vs control
Experimental: Timed pregnant female Sprague-Dawley rats (Harlan, Indianapolis, Ind.) were caged singly in a room controlled for ambient temperature (23±1° C.), humidity (50±10%) and a 12 h light/dark cycle (6:00 am-6:00 pm). Food and water were available ad libitum. All animal care and use for procedures were approved by the Institutional Animal Care and Use Committee (IACUC) of Midwestern University. In order to avoid variation due to hormonal changes, male pups only were separated and utilized for this study. The pups were euthanized via decapitation on postnatal day 1, 7, 14 and 28. The brains were aseptically removed and processed for either immunofluorescent labeling or immunoblot analysis of ETB receptors, VEGF and NGF.
as §1
Immunofluorescently labeled antibodies were used to determine the expression of ETB receptors, VEGF and NGF in the developing rat brain. Male rat pups were euthanized via decapitation, and the brains were removed at postnatal day 1, 7, 14 and 28. The brains were washed in isotonic saline and transferred to a 4% paraformaldehyde (PFA)/NaPO4 buffer solution for 2 hours to fix the tissue, followed by suspension in a 20% sucrose/4% PFA solution for 48 hours at 4° C. Brains were then sliced into 20 μm thick coronal sections at −30° C. using a cryostat (Microtome cryostat HM 505 E; Walldorf, Germany). Sections were processed for immunofluorescent staining as described by Loo, et al. (Loo et al., 2002), with minor modifications. […] Fluorescence was detected using an inverted fluorescent microscope (Nikon Eclipse TiE, Melville, N.Y.). […]

[3] = IRL-1620 on postnatal day 21, brain at day 28, vs control

For “Suc-Asp-Glu-Glu-Ala-Val-Tyr-Phe-Ala-His-Leu-Asp-Ile-Ile-Trp (Suc-DEEAVYFAHLDIIW) [IRL-1620]”, the “Protein expression of ETB receptors (immunoblotting)” value ([1]; IRL-1620 5 μg/kg IV x3 on postnatal day 21, brain at day 28, vs control) was “increased”, the “Overall VEGF expression (immunoblotting)” value [1, 3] was “significantly enhanced” and the “Overall expression of NGF (immunoblotting)” value [1, 3] was “comparable”. The “Intensity of ETB receptor staining in cerebral vasculature and cortex” value [2] was “significantly higher”, the “Intensity of NGF staining and number of NGF-positive cells, cortex or subventricular zones” value [2] was “did not alter” and the “Intensity of VEGF staining” value [2] was “further increase”. The “Number of VEGF-positive vessels” value [2] was “further increase”.
